Test results reported in patent publication US20210244712A1, “METHODS FOR TREATING PATIENTS WITH CANCER HAVING DEFECTS IN CYCLIN D REGULATION” (NysnoBio Ireland DAC, priority 2018, published 2021).

Experiments:
Format in all cases: cell-based
[1] = tested on: cyclin D1; assay: Western blot of Cyclin D1, Example 6B; details: 24 h, compared to control (DMSO)
Procedure: Cells were plated at a density of 3×10^5 cells/well for 24 hrs. Representative compounds or DMSO alone was then added to the wells for 24 h at 250 nM (note: Compound F was administered at a concentration of 2 μM). Cells were trypsinised, pelleted, washed ×3 in PBS, and lysed using a 2% SDS lysis solution (Sigma—05030).
Western blot analysis was then carried out to look at Cyclin D1 (Abeam—ab134175), PRK8 (Sigma—P6248), Rb (Abeam—[…]) and GAPDH (Sigma—G9545) levels.

[2] = tested on: Cyclin D; assay: Cyclin D degradation in cell lines; details: text summary of Table 7
[3] = tested on: A2780; assay: Senescence quantification (SA-βGal); details: Compound 42 50, 100, or 150 nM, 96 hours, compared to control (DMSO)
Procedure: (§1) Senescence was quantified in ovarian cell lines A2780, OAW42, and ES-2. Cell lines A2780 has no cyclin D pathway mutations and has wt Rb and Parkin expression. Cell line OAW42 has increased CDK4 and increased CDK6 with wt Rb and Parkin expression. Cell line ES-2 has increased cyclin D and increased mutant […] with wt Rb and Parkin expression.
(§2) Day 1: 96 well plate was seeded with 4000 cells/well and incubated for 24 hours at 37° C.
(§3) Day 2: Compound 42 (50, 100, or 150 nM) or palbociclib (1 μM) as positive control were added to the wells and the plate was incubated for 96 hours at 37° C.
(§4) Day 6: Senescence cells histochemical Staining Kit (Sigma) was used. The growth medium form the cells were aspirated then washed twice with fresh […]. […] 100 μL filtered Fixation Buffer was added per well and the plate was incubated for 6-7 minutes at room temperature. Then, the cells were rinsed 3 times with PBS. 50 μL of the Staining Mixture was added per well and incubated at 37° C. overnight without CO2 (staining is pH dependent). After staining, the Staining Mixture was removed, PBS and Hoechst dye (1 μg/mL) were added. Ten images were taken with Epifluorescence Microscope using the blue filter and 10 images were taken in the brightfield. The images were used to count the total cell number—the positive blue cells were counted in the bright field. The percentage of cells expressing β-galactosidase was calculated.
(§5) Method 1: Mammalian β-Galactosidase Assay Kit (Thermo Scientific) was used. […] The cells were washed once with PBS. 100 μL of the β-Galactosidase Assay Reagent was added to each well and the plate was covered and incubated for 30 minutes at 37° C. without CO2. The absorbance was measured at 405 nm. If no change was observed, the plate was incubated for an extra 30 minutes.
(§6) Method 2: Assay of a portion of the lysate. The cells were washed once with PBS. 50 μL of the M-PER Reagent was added to each well and the plate was incubated at room temperature for […]. 25 μL of lysate was removed and use it for Protein Quantification (BCA). The date was normalize by protein content.

[4] = tested on: ES-2; assay: Senescence quantification (SA-βGal); details: Compound 42 50, 100, or 150 nM, 96 hours, compared to control (DMSO)
Procedure: as §1, §2, §3, §4, §5, §6

[5] = tested on: OAW42; assay: Senescence quantification (SA-βGal); details: Compound 42 50, 100, or 150 nM, 96 hours, compared to control (DMSO)
Procedure: as §1, §2, §3, §4, §5, §6

[6] = tested on: cyclin E1; assay: Western blot of cellular biomarker cyclin E1; details: 250 nM Compound 42, 24 hours, compared to palbociclib 1 μM
Procedure: Various cancer cells lines were treated with Compound 42 or palbociclib (control) to measure the expression of cyclin D, cyclin E, pRb, and Rb.
Day 1: 6 well plate was seeded with 3×10^5 cells/well with a final volume of 3 mL and incubated for 24 hours at 37° C.
Day 2: The media was removed and Compound 42 (see below for dose) or palbociclib (1 μM) as positive control were added to the wells the desired concentration in cell culture media, giving a final volume of 3 mL per well. The plate was incubated for 24 hours at 37° C. (or desired period).
Day 3: The media was removed from wells and washed ×3 with PBS. 500 μl of trypsin was added to the wells and incubate until cells detach. 500 μl media was added to neutralise trypsin, transferred to 2 ml Eppendorfs, and centrifuged (1500 RPM for 5 minutes). While spinning, the wells were washed with 1 mL PBS to collect any remaining cells. This wash was used to centrifuged cell pellet. After the first spin, the supernatant was discarded and the pellet was washed with PBS collected from the previous step. The centrifugation step was repeated and the supernatant was discarded and the pellet wash again with fresh PBS. The centrifugation and wash with PBS was repeated one more time. RIPA cell lysate buffer was prepared and Protease Inhibitor Cocktail was included. The supernatant was discarded and […] RIPA cell lysate buffer was added to the pellet. The protein concentration was determined using the BCA assay kit.
Day 4: Western blot analysis was performed. 4-12% Bis-Tris gel and MOPS running buffer was used. The running buffer was made to sufficient volume of running buffer to 1× concentration. 20 μg protein (v/v loading & reducing buffer) of each sample was loaded into wells. Some proteins may require more, or less, protein loaded. The gel was ran at standard settings 200 V for 45 minutes. […] The membrane was blocked using 5% non-fat powdered milk* made up in 1×TBS containing 0.1% Tween (TBS-T and incubated for 1 hr with gentle rocking. The observation from the Western blot analysis is quantified in FIGS. 2-7D. […]

[7] = tested on: Cyclin D; assay: Mechanistic study: Cyclin D western blot with or without epoxomicin; details: ES-2, 18 hours
Procedure: In order to establish that the decrease in Cyclin D seen after Compound 42 treatment is due to proteasomal degradation, ES-2, ovarian cancer cell line was treated with Compound 42 (250 nM) in the presence or absence of epoxomicin, a specific inhibitor of the proteasome (60 nM) for 18 hours. Following the treatment, western blotting for Cyclin D (FIG. 10A), Ub (FK-2) (FIG. 10B), and GAPDH control (bottom blot, below FIGS. 10A and 10B) was performed. Epoxomicin is a specific inhibitor of the proteasome.

SMILES | Cyclin D1 expression ([1]; HCT-116, 2 μM) | Cyclin D1 expression ([1]; TOV-112, 2 μM) | degrading Cyclin D, overall statement [2] | senescence (SA-βGal levels) [3] | senescence (SA-βGal levels) [4] | senescence (SA-βGal levels) [5] | cyclin E1 expression ([6]; A2780) | cyclin E1 expression ([6]; ES-2) | cyclin E1 expression ([6]; OAW42) | Cyclin D1 expression ([1]; HCT-116, 250 nM) | Cyclin D1 expression ([1]; TOV-112, 250 nM) | cyclin D levels ([7]; Compound 42 250 nM alone) | cyclin D levels ([7]; Compound 42 250 nM alone, listed as compound 42) | cyclin D levels ([7]; Compound 42 250 nM in the presence of epoxomicin 60 nM) | cyclin D levels ([7]; Compound 42 250 nM in the presence of epoxomicin 60 nM, listed as compound 42)
Cc1ccccc1C(=O)Nc1nc(NC(=O)c2ccccc2C)n(-c2ccccc2)n1 [Compound F, 2-methyl-N-[5-[(2-methylbenzoyl)amino]-1-phenyl-1,2,4-triazol-3-yl]benzamide] | reduction of Cyclin D1 expression | reduction of Cyclin D1 expression | – | – | – | – | – | – | – | – | – | – | – | – | –
Cc1ccccc1C(=O)Nc1nc(NC(=O)c2ccccc2C)n(-c2ccc(OC(F)(F)F)cc2)n1 [Compound 42, N,N′-(1-(4-(trifluoromethoxy)phenyl)-1H-1,2,4-triazole-3,5-diyl)bis(2-methylbenzamide)] | – | – | effective in degrading Cyclin D | induced senescence | induced senescence | induced senescence | reduction of cyclin E1 expressions | reduction of cyclin E1 expressions | some reduction of cyclin E1 expression | reduction of Cyclin D1 expression | reduction of Cyclin D1 expression | induced cyclin D levels to decrease | decreases cyclin D levels | returned cyclin D levels to normal (or slightly above) | counterbalanced by adding epoxomicin
